Data set [1] concerns the target strips of fresh guinea pig trachea, acetylcholine as the agonist. In words: Anticholinergic activity in guinea pig tracheal strips, acetylcholine as agonist (Schild plot). The format is cell-based. Conditions: for negative logarithm of the dissociation constant: acetylcholine as agonist, guinea pig trachea. As to the method:
The test was carried out on 2mm. x 30mm. strips of fresh guinea pig trachea. The strips were suspended in 10 ml. organ baths containing physiological salt solution at 37.5°, and aerated with a mixture of 5% carbon dioxide and 95% oxygen. The tracheal strips were attached to isometric transducers connected to an automatic recorder, and were allowed to equilibrate under a tension of 2 g. for at least 2 hours before addition of drug. Dose-response curves were obtained by adding increasing concentrations of drug to the bath, in approximately 3-fold increments. […] Consecutive dose-response curves on a given tissue were always separated by 1 hour of washing with fresh physiological salt solution to assure maximum washout of drug.
Dissociation constants were determined using acetylcholine as the agonist. In this method, the ratio of concentrations of acetylcholine giving equal responses in the presence and in the absence of the compound of this invention was determined at various concentrations of the compound. […] The method of calculation is clearly discussed by Arunlakshana and Schild, Some Quantitative Uses of Drug Antagonists, Brit. J. Pharmacol. 14 48-58 (1959).

Data set [2] relates to uptake of [3H]-norepinephrine, hypothalamus. In words: Inhibition of norepinephrine uptake in hypothalamus homogenate after dosing live rats. The data set is classed as in vivo, male Sprague-Dawley rats. The conditions noted are these: for inhibition at 10 mg/kg / ED50: Rattus norvegicus; for ED50: ip, read-out: ED50 value. On the procedure:
The test animals were male Sprague-Dawley rats weighing 110-150 g., which were treated in groups of 5 with the test compound at the doses and times specified, and were killed by decapitation. The hypothalamus was removed from each brain, and homogenized in a medium as described in the in vitro test above. Aliquots of the homogenate containing 1 mg. of protein were used; the incubation times, medium and temperature were as described in the test above.
The data were expressed another way by plotting the blood level of the compound against the rate of [^3H]norepinephrine uptake.

The subject of data set [3] is mice. In words: Acute toxicity in mice. The conditions noted are these: injected in mice.
The subject of data set [4] is uptake of norepinephrine by synaptosomes of the hypothalamus after 6-hydroxydopamine. In words: Protection against 6-hydroxydopamine-induced loss of norepinephrine uptake. The conditions noted are these: Rattus norvegicus, ip; for ED50: antagonism of 6-hydroxydopamine, intraperitoneally. The format is in vivo, male Sprague-Dawley rat. An excerpt:
The neurotoxic agent 6-hydroxydopamine has the property of destroying norepinephrinergic terminals of the central and peripheral nervous systems.

Data set [5] has as its system reduction in body temperature caused by apomorphine. Put plainly: Apomorphine hypothermia antagonism test. The format is in vivo, Mice. Conditions: for dose giving 50% antagonism of the hypothermia: compound intraperitoneally 30 minutes before apomorphine, temperature 30 minutes after.
Data set [6] relates to uptake of norepinephrine by synaptosomes isolated from the hypothalamus. In words: In vitro uptake of [3H]norepinephrine by rat hypothalamus synaptosomes (method of Wong and Bymaster). The data set is classed as biochemical, male Sprague-Dawley rats. Conditions: for Uptake: [3H]norepinephrine uptake. On the procedure:
(§1) Monoamine uptake inhibition was measured by the in vitro method of Wong and Bymaster, cited above. In this method, male Sprague-Dawley rats weighing 110-150 g. were killed by decapitation, and the whole brains were removed and dissected. Crude preparations of synaptosomes were prepared from 10% homogenates of specific areas of the brain in 0.32M sucrose and lOmM glucose by differential centrifugation, according to the method of Gray and Whittaker, J. Anat. 96, 79 (1962).
(§2) Uptake of [^3H]monoamines by synaptosomes was determined as follows. A portion of a synaptosome preparation equivalent to 1 mg. of protein was incubated at 37°. for 5 minutes in 1 or 3 ml. of Krebs bicarbonate medium containing an additional 10mM of glucose, 0.1mM iproniazid, ImM ascorbic acid, 0.17mM ethylenediaminetetraacetic acid and [3H]monoamine at a specified concentration. The incubation mixtures were immediately diluted with 2 ml. of ice-chilled Krebs bicarbonate buffer containing 1mM non-radioactive monoamine. Synaptosomes were harvested by centrifugation, and rinsed with 5 ml. of cold buffer into counting vials containing 10 ml. of scintillation fluid. Radioactivity was measured with a liquid scintillation spectrometer, and the amount of [^3H]- monoamine accumulated by the synaptosomes at 4° represented the background count and was subtracted from the results obtained on all samples.

The test system of data set [7] is mice. Conditions: mouse, in vivo.
Data set [8] relates to serotonin uptake, synaptosomes of cerebral cortex. Put plainly: In vitro uptake of [3H]serotonin by cerebral cortex synaptosomes. The format is biochemical, male Sprague-Dawley rats. As to the method: as §1
as §2, with “The incubation mixtures were immediately diluted with 2 ml. of ice-chilled Krebs bicarbonate buffer containing 1mM non-radioactive monoamine. Synaptosomes were harvested by centrifugation, and rinsed with 5 ml. of cold buffer into counting vials containing 10 ml. of scintillation fluid.” left out
(§3) The effect of the compound of this invention on the uptake of [^3H]serotonin and [^3H]dopamine was also determined, by the same test method, using synaptosomes isolated from the corpus striatum for the determination of dopamine uptake and synaptosomes of cerebral cortex for serotonin uptake.

A short description of data set [9]: Oral absorption (statement only). The conditions noted are these: in vivo.
The subject of data set [10] is dopamine uptake, synaptosomes isolated from the corpus striatum. Put plainly: In vitro uptake of [3H]dopamine by corpus striatum synaptosomes. The data set is classed as biochemical, male Sprague-Dawley rats. On the procedure: as §1
as §2, with “The incubation mixtures were immediately diluted with 2 ml. of ice-chilled Krebs bicarbonate buffer containing 1mM non-radioactive monoamine. Synaptosomes were harvested by centrifugation, and rinsed with 5 ml. of cold buffer into counting vials containing 10 ml. of scintillation fluid.” left out
as §3

Data set [11] deals with canine cardiac conducting tissue, sometimes called Purkinje fibers. Conditions: dog. An excerpt:
Another test applied to the compound was one designed to detect electrophysiological effects in canine cardiac conducting tissue, sometimes called Purkinje fibers.

Where [12] appears, read: 4 h, four hours after administration, read-out: inhibition of norepinephrine uptake.
Where [13] appears, read: inhibition of norepinephrine uptake, intraperitoneally, 1 hour before sacrifice.
Setting [14] is: duration experiment up to 4 hours, read-out: maximum inhibition of norepinephrine uptake.

Where two headings read alike, the source gives them in different places.

For `CNCC[C@H](Oc1ccccc1C)c1ccccc1` [(+)-enantiomer, reference compound], the “negative logarithm of the dissociation constant” value in data set [1] stood at 6.04. The inhibition (usually the percentage by which the read-out fell short of the control) at 10 mg/kg in [2] (setting [12]) amounted to 35%; in data set [2] (setting [14]) it was 70%; in [2] (second hour after administration, read-out: inhibition of norepinephrine uptake) it was 50%. For the same compound, the ED50 (in general, the dose at which the effect has come halfway, by size or by number of responders) in data set [2] (setting [13]) is 6.3 mg/kg; in data set [4], roughly 22 mg/kg. Further, the “doses at which no deaths occurred” value with mice [3] was “below 90 mg./kg”. The “dose giving 50% antagonism of the hypothermia” value in data set [5] is 2.26 mg/kg. In addition, the antagonism in data set [5] (compound orally at 3 mg./kg., apomorphine intraperitoneally) was 50%. Moreover, the IC50 in data set [6] (norepinephrine uptake, hypothalamus synaptosomes, read-out: IC50 value, concentration which inhibited half of the uptake activity) worked out at 40 nM. Besides, the “time after administration at which mice were still stimulated” value in the data set on mice [7] was no less than 5 h.

Consider `CNCCC(Oc1ccccc1C)c1ccccc1.Cl` (racemic) [racemate, N-methyl-3-(2-methylphenoxy)-3-phenylpropylamine, hydrochloride, reference compound], for which, in data set [1], the “negative logarithm of the dissociation constant” value came out at 5.72. The ED50 in [2] was 3.4 mg/kg.

`CNCCC(Oc1ccccc1C)c1ccccc1.Cl` (single isomer, unassigned; (-)) [compound of this invention, (-)-N-methyl-3-(2-methylphenoxy)-3-phenylpropylamine, hydrochloride]: the IC50 is 1000 nM in [8] and 4000 nM in [10]. Also, the “anticholinergic activity relative to the (+)-enantiomer” value in data set [1] (fraction of the activity of the (+)-enantiomer) was 1/6. Also, the “anticholinergic activity relative to the racemate” value in data set [1] (fraction of the activity of the racemate) is 1/3. For the same compound, the “uptake of [3H]-norepinephrine reduced from the control value” in data set [2] (1 mg./kg. intraperitoneally, 1 hour before sacrifice) stood at 35%; in [2] (3 mg./kg. intraperitoneally, 1 hour before sacrifice), 58%; in data set [2] (10 mg./kg. intraperitoneally, 1 hour before sacrifice) it was 68%. The inhibition at 10 mg/kg in data set [2] (setting [12]) was roughly 65%; in data set [2] (setting [14]), greater than 80%. Besides, the ED50 was found to be 2.1 mg/kg in data set [2] (setting [13]) and 4 mg/kg in [4]. Besides, the “ED50 concentration in blood plasma” value in data set [2] (blood level plotted against rate of [3H]norepinephrine uptake) was “about 14 x 10^-9 g./ml”. The “doses at which no deaths occurred” value with mice [3] is given as “below 90 mg./kg”. The inhibition at 1 mg/kg in data set [4] (1 mg./kg. intraperitoneally before 6-hydroxydopamine, read-out: reduced the inhibition of uptake (by 6-hydroxydopamine)) is 15%. The inhibition at 3 mg/kg in data set [4] (3 mg./kg. intraperitoneally before 6-hydroxydopamine, read-out: reduced the inhibition of uptake (by 6-hydroxydopamine)) was found to be 43%. Also, the inhibition at 6 mg/kg in data set [4] (6 mg./kg. intraperitoneally before 6-hydroxydopamine, read-out: reduced the inhibition of uptake (by 6-hydroxydopamine)) was 70%. For the same compound, in data set [5], the “dose giving 50% antagonism of the hypothermia” value was found to be 0.16 mg/kg. Moreover, the highest antagonism in [5] (compound orally at 1 mg./kg., apomorphine intraperitoneally) is given as 35%. Further, the oral absorption result in [9] is given as “orally absorbed”. The Uptake in [6] (concentration 1 x 10^-9M, control without drug 3.9 x 10^-12 moles/mg. protein) is reported as 3.1 x 10^-12moles/mg. protein; in data set [6] (concentration 2 x 10^-9M, control 3.9), 2.2 x 10^-12moles/mg. protein; in [6] (concentration 3 x 10^-9M, control 3.9), 3.1 x 10^-12moles/mg. protein; in data set [6] (concentration 10 x 10^-9M, control 3.9), 1.4 x 10^-12moles/mg. protein; in data set [6] (concentration 30 x 10^-9M, control 3.9) it was 1.0 x 10^-12moles/mg. protein; in [6] (concentration 50 x 10^-9M, control 3.9) it was 0.9 x 10^-12moles/mg. protein. Besides, the Uptake in [6] (concentration 100 x 10^-9M, control 3.9) is listed as 0.8 x 10^-12moles/mg. protein. Also, the “potency in inhibiting the uptake of norepinephrine relative to the (+)-enantiomer” value in [6] (compared with the corresponding (+)-enantiomer) is reported as “about 10 times”. Also, in [11], the “concentration that suppressed the rate of rise and duration of the action potential” value is 8 µM.

The values are drawn from patent EP0052492A1, “3-Aryloxy-3-phenylpropylamines” (ELI LILLY AND COMPANY, priority 1980, dated 1982).
